Measured values reported in ChEMBL document CHEMBL4138123, “Design, synthesis and biological evaluation of novel pyrazolochalcones as potential modulators of PI3K/Akt/mTOR pathway and inducers of apoptosis in breast cancer cells” (Eur J Med Chem, 2017).

Experiments:
Assay type in all cases: functional
RPMI-8226 [1] = experiment: Cytotoxicity against human RPMI8226 cells assessed as growth inhibition after 48 hrs by sulforhodamine B assay; conditions: RPMI-8226, 48 h
SR = experiment: Cytotoxicity against human SR cells assessed as growth inhibition after 48 hrs by sulforhodamine B assay; conditions: for CC50: read-out: LC50 (the source's name)
A549 [2] = experiment: Cytotoxicity against human A549/ATCC cells assessed as growth inhibition after 48 hrs by sulforhodamine B assay; conditions: A549, 48 h
HCC 2998 [3] = experiment: Cytotoxicity against human HCC2998 cells assessed as growth inhibition after 48 hrs by sulforhodamine B assay; conditions: HCC 2998, 48 h
SW-620 = experiment: Cytotoxicity against human SW620 cells assessed as growth inhibition after 48 hrs by sulforhodamine B assay; conditions: SW-620, 48 h
SNB-19 = experiment: Cytotoxicity against human SNB19 cells assessed as growth inhibition after 48 hrs by sulforhodamine B assay; conditions: SNB-19, 48 h; for CC50: read-out: LC50 (the source's name)
OVCAR-5 = experiment: Cytotoxicity against human OVCAR5 cells assessed as growth inhibition after 48 hrs by sulforhodamine B assay; conditions: OVCAR-5, 48 h
SK-OV-3 = experiment: Cytotoxicity against human SKOV3 cells assessed as growth inhibition after 48 hrs by sulforhodamine B assay; conditions: SK-OV-3, 48 h
A498 = experiment: Cytotoxicity against human A498 cells assessed as growth inhibition after 48 hrs by sulforhodamine B assay; conditions: A498, 48 h
ACHN = experiment: Cytotoxicity against human ACHN cells assessed as cell growth at 0.01 uM after 48 hrs by sulforhodamine B assay relative to control; conditions: read-out: Activity
HCT-15 = experiment: Cytotoxicity against human HCT15 cells assessed as cell growth at 0.01 uM after 48 hrs by sulforhodamine B assay relative to control; conditions: HCT-15, 48 h, read-out: Activity
HCC 2998 [4] = experiment: Cytotoxicity against human HCC2998 cells assessed as cell growth at 0.01 uM after 48 hrs by sulforhodamine B assay relative to control; conditions: HCC 2998, 48 h, read-out: Activity
NCI-H322M = experiment: Cytotoxicity against human NCI-H322M cells assessed as cell growth at 0.01 uM after 48 hrs by sulforhodamine B assay relative to control; conditions: read-out: Activity
A549 [5] = experiment: Cytotoxicity against human A549/ATCC cells assessed as cell growth at 0.01 uM after 48 hrs by sulforhodamine B assay relative to control; conditions: A549, 48 h, read-out: Activity
SN12C [6] = experiment: Cytotoxicity against human SN12C cells assessed as cell growth at 0.01 uM after 48 hrs by sulforhodamine B assay relative to control; conditions: read-out: Activity
MOLT-4 [7] = experiment: Cytotoxicity against human MOLT4 cells assessed as cell growth at 0.1 uM after 48 hrs by sulforhodamine B assay relative to control; conditions: MOLT-4, 48 h, read-out: Activity
RPMI-8226 [8] = experiment: Cytotoxicity against human RPMI8226 cells assessed as cell growth at 0.1 uM after 48 hrs by sulforhodamine B assay relative to control; conditions: RPMI-8226, 48 h, read-out: Activity
COLO 205 [9] = experiment: Cytotoxicity against human COLO205 cells assessed as cell growth at 0.1 uM after 48 hrs by sulforhodamine B assay relative to control; conditions: COLO 205, 48 h, read-out: Activity
786-0 = experiment: Cytotoxicity against human 786-0 cells assessed as cell growth at 0.1 uM after 48 hrs by sulforhodamine B assay relative to control; conditions: 786-0, 48 h, read-out: Activity
SN12C [10] = experiment: Cytotoxicity against human SN12C cells assessed as cell growth at 0.1 uM after 48 hrs by sulforhodamine B assay relative to control; conditions: read-out: Activity
Hs-578T = experiment: Cytotoxicity against human Hs 578T cells assessed as cell growth at 0.1 uM after 48 hrs by sulforhodamine B assay relative to control; conditions: read-out: Activity
T47D [11] = experiment: Cytotoxicity against human T47D cells assessed as cell growth at 0.1 uM after 48 hrs by sulforhodamine B assay relative to control; conditions: read-out: Activity
K562 = experiment: Cytotoxicity against human K562 cells assessed as cell growth at 1 uM after 48 hrs by sulforhodamine B assay relative to control; conditions: K562, 48 h, read-out: Activity
A549 [12] = experiment: Cytotoxicity against human A549/ATCC cells assessed as cell growth at 1 uM after 48 hrs by sulforhodamine B assay relative to control; conditions: A549, 48 h, read-out: Activity
HCT-116 = experiment: Cytotoxicity against human HCT116 cells assessed as cell growth at 1 uM after 48 hrs by sulforhodamine B assay relative to control; conditions: HCT-116, 48 h, read-out: Activity
U-251 = experiment: Cytotoxicity against human U251 cells assessed as cell growth at 1 uM after 48 hrs by sulforhodamine B assay relative to control; conditions: U-251, 48 h, read-out: Activity
MDA-MB-435 [13] = experiment: Cytotoxicity against human MDA-MB-435 cells assessed as cell growth at 1 uM after 48 hrs by sulforhodamine B assay relative to control; conditions: MDA-MB-435, 48 h, read-out: Activity
OVCAR-4 = experiment: Cytotoxicity against human OVCAR4 cells assessed as cell growth at 1 uM after 48 hrs by sulforhodamine B assay relative to control; conditions: OVCAR-4, 48 h, read-out: Activity
UO-31 = experiment: Cytotoxicity against human UO31 cells assessed as cell growth at 1 uM after 48 hrs by sulforhodamine B assay relative to control; conditions: UO-31, 48 h, read-out: Activity
COLO 205 [14] = experiment: Cytotoxicity against human COLO205 cells assessed as cell growth at 10 uM after 48 hrs by sulforhodamine B assay relative to control; conditions: COLO 205, 48 h, read-out: Activity
MDA-MB-435 [15] = experiment: Cytotoxicity against human MDA-MB-435 cells assessed as cell growth at 10 uM after 48 hrs by sulforhodamine B assay relative to control; conditions: MDA-MB-435, 48 h, read-out: Activity
T47D [16] = experiment: Cytotoxicity against human T47D cells assessed as cell growth at 10 uM after 48 hrs by sulforhodamine B assay relative to control; conditions: read-out: Activity
MOLT-4 [17] = experiment: Cytotoxicity against human MOLT4 cells assessed as cell growth at 100 uM after 48 hrs by sulforhodamine B assay relative to control; conditions: MOLT-4, 48 h, read-out: Activity
M14 = experiment: Cytotoxicity against human M14 cells assessed as cell growth at 100 uM after 48 hrs by sulforhodamine B assay relative to control; conditions: M14, 48 h, read-out: Activity
TK-10 = experiment: Cytotoxicity against human TK10 cells assessed as cell growth at 100 uM after 48 hrs by sulforhodamine B assay relative to control; conditions: TK-10, 48 h, read-out: Activity
MCF7 = experiment: Cytotoxicity against human MCF7 cells assessed as cell growth at 100 uM after 48 hrs by sulforhodamine B assay relative to control; conditions: MCF7, 48 h, read-out: Activity

## COc1cc(-c2cc(/C=C/C(=O)c3ccc(F)c(F)c3)[nH]n2)cc(OC)c1OC
RPMI-8226 [1]
  LC50: > 100 µM
  TGI: 6.01 µM
SR
  TGI: > 100 µM
  CC50: > 100 µM
A549 [2]
  LC50 (concentration giving 50% net cell kill): > 100 µM
  TGI: 9.9 µM
HCC 2998 [3]
  LC50: > 100 µM
  TGI: 34.1 µM
SW-620
  LC50 (lethal concentration, 50% net cell kill): > 100 µM
  TGI: > 100 µM
SNB-19
  TGI: > 100 µM
  CC50: > 100 µM
OVCAR-5
  LC50: > 100 µM
  TGI: 33.8 µM
SK-OV-3
  LC50: > 100 µM
  TGI: 58.6 µM
A498
  LC50: > 100 µM
  TGI: 7.13 µM
ACHN
  growth at 0.01 µM: 102%
HCT-15
  growth at 0.01 µM: 97%
HCC 2998 [4]
  growth at 0.01 µM: 83%
NCI-H322M
  growth at 0.01 µM: 94%
A549 [5]
  growth at 0.01 µM: 101%
SN12C [6]
  growth at 0.01 µM: 95%
MOLT-4 [7]
  growth at 0.1 µM: 106%
RPMI-8226 [8]
  growth at 0.1 µM: 90%
COLO 205 [9]
  growth at 0.1 µM: 98%
786-0
  growth at 0.1 µM: 95%
SN12C [10]
  growth at 0.1 µM: 94%
Hs-578T
  growth at 0.1 µM: 97%
T47D [11]
  growth at 0.1 µM: 93%
K562
  growth at 1 µM: 102%
A549 [12]
  growth at 1 µM: 82%
HCT-116
  growth at 1 µM: 113%
U-251
  growth at 1 µM: 87%
MDA-MB-435 [13]
  growth at 1 µM: 88%
OVCAR-4
  growth at 1 µM: 67%
UO-31
  growth at 1 µM: 84%
COLO 205 [14]
  growth at 10 µM: -90%
MDA-MB-435 [15]
  growth at 10 µM: 5%
T47D [16]
  growth at 10 µM: 9%
MOLT-4 [17]
  growth at 100 µM: -14%
M14
  growth at 100 µM: -38%
TK-10
  growth at 100 µM: -37%
MCF7
  growth at 100 µM: -20%

## COc1ccc(-c2cc(/C=C/C(=O)c3ccc(OC)c(OC)c3)[nH]n2)cc1
RPMI-8226 [1]
  GI50: 320 nM
  LC50: 8.16 µM
  TGI: 1.33 µM
SR
  GI50: 670 nM
  TGI: 3.74 µM
  CC50: > 100 µM
A549 [2]
  GI50: 1880 nM
  LC50 (concentration giving 50% net cell kill): > 100 µM
  TGI: 5.95 µM
HCC 2998 [3]
  GI50: 2020 nM
  LC50: 7.81 µM
  TGI: 3.97 µM
SW-620
  GI50: 1350 nM
  LC50 (lethal concentration, 50% net cell kill): 9.54 µM
  TGI: 3.59 µM
SNB-19
  GI50: 1880 nM
  TGI: 5.28 µM
  CC50: 19.6 µM
OVCAR-5
  GI50: 1650 nM
  LC50: 10.6 µM
  TGI: 4.09 µM
SK-OV-3
  GI50: 5.56 µM
  LC50: 43.4 µM
  TGI: 17.1 µM
A498
  GI50: 1420 nM
  LC50: 8.87 µM
  TGI: 3.55 µM
ACHN
  growth at 0.01 µM: 100%
HCT-15
  growth at 0.01 µM: 95%
HCC 2998 [4]
  growth at 0.01 µM: 100%
NCI-H322M
  growth at 0.01 µM: 94%
A549 [5]
  growth at 0.01 µM: 93%
SN12C [6]
  growth at 0.01 µM: 95%
MOLT-4 [7]
  growth at 0.1 µM: 108%
RPMI-8226 [8]
  growth at 0.1 µM: 93%
COLO 205 [9]
  growth at 0.1 µM: 104%
786-0
  growth at 0.1 µM: 102%
SN12C [10]
  growth at 0.1 µM: 93%
Hs-578T
  growth at 0.1 µM: 92%
T47D [11]
  growth at 0.1 µM: 92%
K562
  growth at 1 µM: 56%
A549 [12]
  growth at 1 µM: 77%
HCT-116
  growth at 1 µM: 51%
U-251
  growth at 1 µM: 57%
MDA-MB-435 [13]
  growth at 1 µM: 91%
OVCAR-4
  growth at 1 µM: 39%
UO-31
  growth at 1 µM: 61%
COLO 205 [14]
  growth at 10 µM: -89%
MDA-MB-435 [15]
  growth at 10 µM: -64%
T47D [16]
  growth at 10 µM: -28%
MOLT-4 [17]
  growth at 100 µM: -33%
M14
  growth at 100 µM: -99%
TK-10
  growth at 100 µM: -98%
MCF7
  growth at 100 µM: -100%
